Test results taken from patent US9850283B2, “Macrocyclic inhibitors of the PD-1/PD-L1 and CD80(B7-1)/PD-L1 protein/protein interactions” (BRISTOL-MYERS SQUIBB COMPANY, priority 2013, dated 2017).
pIC50: −log10 of the molar value. Read-outs that look alike come from different tables or passages of the source. Positions of bridges follow the written chain, without caps; N, C: chain ends. Non-standard residues stand in square brackets, D forms with d. Residues, ends and D or L forms follow the SMILES beside them. ξ: configuration not given here. Pro(trans-4-cHex) = O=C(O)[C@@H]1C[C@@H](C2CCCCC2)CN1; Ala(indol-4-yl) = N[C@@H](Cc1cccc2[nH]ccc12)C(=O)O; Bip = N[C@@H](Cc1ccc(-c2ccccc2)cc1)C(=O)O; Pro(5S-Me) = C[C@H]1CC[C@@H](C(=O)O)N1; Bta = N[C@@H](Cc1csc2ccccc12)C(=O)O; Hyp = O=C(O)[C@@H]1C[C@@H](O)CN1; NMeNle = CCCC[C@H](NC)C(=O)O; NMeS = CN[C@@H](CO)C(=O)O; ξR = N=C(N)NCCCC(N)C(=O)O; NMeA = CN[C@@H](C)C(=O)O; Orn = NCCC[C@H](N)C(=O)O; Dab = NCC[C@H](N)C(=O)O; Dap = NC[C@H](N)C(=O)O; ξP = O=C(O)C1CCCN1; ξC = NC(CS)C(=O)O; ξS = NC(CO)C(=O)O; Sar = CNCC(=O)O

How the values were obtained:
Human PD-L1/PD-1 = target: T1, Human PD-L1/PD-1 (Homo sapiens, UniProt Q9NZQ7); test: HTRF PD-1-Ig/PD-L1-His binding assay (human PD-L1); conditions: cluster symbol; read-out: HTRF IC50 cluster
T1 construct: made in house; host or cells: HEK293T
T1 sequence (Q9NZQ7 with tags, fused parts or gaps): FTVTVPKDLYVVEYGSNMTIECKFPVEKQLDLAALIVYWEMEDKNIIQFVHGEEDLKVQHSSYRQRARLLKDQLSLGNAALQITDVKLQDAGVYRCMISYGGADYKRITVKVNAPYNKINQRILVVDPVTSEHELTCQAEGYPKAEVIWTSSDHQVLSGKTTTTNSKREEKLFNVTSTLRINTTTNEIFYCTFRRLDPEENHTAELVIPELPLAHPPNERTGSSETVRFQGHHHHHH
Method in brief: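 Soluble Fc-fused PD-1 and His-tagged PD-L1 (truncated before the transmembrane region) were combined in dPBS with 0.1% (w/v) BSA and 0.05% (v/v) Tween-20. Binding was read by HTRF using europium cryptate anti-Ig antibody (1 nM final) and APC anti-His antibody (20 nM final).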

[1] = target: T2, LK35.2-hPD-L1 cells / PE-labeled PD-1-Ig (Homo sapiens, UniProt Q9NZQ7); test: LK35.2-hPD-L1 cell binding high-content screening assay; format: cell-based; conditions: cluster symbol, read-out: CBA IC50 cluster
T2 construct: expressed in transfected cells; host or cells: LK35.2 mouse B cell line
T2 sequence (Q9NZQ7 19-290): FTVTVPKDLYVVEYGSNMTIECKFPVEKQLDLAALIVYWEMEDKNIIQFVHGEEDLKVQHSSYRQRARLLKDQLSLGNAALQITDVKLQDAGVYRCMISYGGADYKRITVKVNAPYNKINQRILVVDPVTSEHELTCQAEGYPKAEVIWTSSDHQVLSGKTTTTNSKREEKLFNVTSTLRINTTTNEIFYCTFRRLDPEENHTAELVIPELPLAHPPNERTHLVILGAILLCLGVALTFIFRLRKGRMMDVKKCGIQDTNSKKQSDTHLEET
Method in brief: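 Compound effect on PD-1/PD-L1 binding is measured by imaging cell-associated phycoerythrin signal. Human PD-1-Ig (PE on Ig tag, 1 nM final) is applied with compound to a murine B cell line overexpressing human PD-L1 for 1 h at 37 °C in serum-containing RPMI.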

[2] = cell line of CBA not given (LK35.2-hPD-L1 or 293T-hPD-L1)
[3] = cell binding assay, cell line not given

pIC50 (Human PD-L1/PD-1) | pIC50 [1, 2] | pIC50 [1, 3] | SMILES
8.17 to 9.41 | 8.33 to 9.80 | – | CCCC[C@H]1C(=O)N(C)[C@@H](CCCC)C(=O)N[C@@H](CCCNC(=N)N)C(=O)N[C@H](C(=O)NCC(N)=O)CSCC(=O)N[C@@H](Cc2ccc(O)cc2)C(=O)N(C)[C@@H](C)C(=O)N[C@@H](CC(N)=O)C(=O)N2CCC[C@H]2C(=O)N[C@@H](Cc2cnc[nH]2)C(=O)N[C@@H](CC(C)C)C(=O)N2CCC[C@H]2C(=O)N[C@@H](Cc2c[nH]c3ccccc23)C(=O)N[C@@H](CO)C(=O)N[C@@H](Cc2c[nH]c3ccccc23)C(=O)N1C [Example 1016] ({CH2CO}-Y[NMeA]NPHLPWSW[NMeNle][NMeNle]RCG-NH2; thioether N-14)
8.17 to 9.41 | – | 8.33 to 9.80 | CCCC[C@H]1C(=O)N(C)[C@@H](CCCC)C(=O)N[C@@H](CCCN)C(=O)N[C@H](C(=O)NCC(N)=O)CSCC(=O)N[C@@H](Cc2ccc(O)cc2)C(=O)N(C)[C@@H](C)C(=O)N[C@@H](CC(N)=O)C(=O)N2CCC[C@H]2C(=O)N[C@@H](CN)C(=O)N[C@@H](CC(C)C)C(=O)N2C[C@H](C3CCCCC3)C[C@H]2C(=O)N[C@@H](Cc2c[nH]c3ccccc23)C(=O)N[C@@H](CO)C(=O)N[C@@H](Cc2c[nH]c3ccccc23)C(=O)N1C [Example 14007] ({CH2CO}-Y[NMeA]NP[Dap]L[Pro(trans-4-cHex)]WSW[NMeNle][NMeNle][Orn]CG-NH2; thioether N-14)
7.52 to 8.17 | – | 8.33 to 9.80 | CCCC[C@H]1C(=O)N(C)[C@@H](CCCC)C(=O)N[C@@H](CCCNC(=N)N)C(=O)NC(C(=O)NCC(N)=O)CSCC(=O)N[C@@H](Cc2ccc(O)cc2)C(=O)N(C)[C@@H](C)C(=O)N[C@@H](CC(N)=O)C(=O)N2CCC[C@H]2C(=O)N[C@@H](Cc2cnc[nH]2)C(=O)N[C@@H](CC(C)C)C(=O)N2[C@@H](C)CC[C@H]2C(=O)N[C@@H](Cc2c[nH]c3ccccc23)C(=O)N[C@@H](CO)C(=O)N[C@@H](Cc2csc3ccccc23)C(=O)N1C (stereo partly drawn) [Example 9015] ({CH2CO}-Y[NMeA]NPHL[Pro(5S-Me)]WS[Bta][NMeNle][NMeNle]R[ξC]G-NH2; thioether N-14)
8.17 to 9.41 | – | 8.33 to 9.80 | CCCC[C@H]1C(=O)N(C)[C@@H](CCCC)C(=O)N[C@@H](CCCNC(=N)N)C(=O)NC(C(=O)NCC(N)=O)CSCC(=O)N[C@@H](Cc2ccc(O)cc2)C(=O)N(C)[C@@H](C)C(=O)N[C@@H](CC(N)=O)C(=O)N2CCC[C@H]2C(=O)N[C@@H](Cc2cnc[nH]2)C(=O)N[C@@H](CO)C(=O)N2C[C@H](O)C[C@H]2C(=O)N[C@@H](Cc2c[nH]c3ccccc23)C(=O)N[C@@H](CO)C(=O)N[C@@H](Cc2c[nH]c3ccccc23)C(=O)N1C (stereo partly shown) [Example 9069] ({CH2CO}-Y[NMeA]NPHS[Hyp]WSW[NMeNle][NMeNle]R[ξC]G-NH2; thioether N-14)
< 7.52 | – | < 7.13 | CCCC[C@H]1C(=O)N(C)[C@@H](CCCC)C(=O)N[C@@H](CCN)C(=O)N[C@H](C(=O)NCC(N)=O)CSCC(=O)N[C@@H](Cc2ccc(O)cc2)C(=O)N(C)[C@@H](C)C(=O)N[C@@H](CC(N)=O)C(=O)N2CCC[C@H]2C(=O)N[C@@H](Cc2cnc[nH]2)C(=O)N[C@@H](CCC(=O)O)C(=O)N2C[C@H](O)C[C@H]2C(=O)N[C@@H](Cc2csc3ccccc23)C(=O)N[C@@H](C)C(=O)N[C@@H](Cc2c[nH]c3ccccc23)C(=O)N1C [Example 5053] ({CH2CO}-Y[NMeA]NPHE[Hyp][Bta]AW[NMeNle][NMeNle][Dab]CG-NH2; thioether N-14)
7.52 to 8.17 | 8.33 to 9.80 | – | CCCC[C@H]1C(=O)N(C)[C@@H](CCCC)C(=O)N[C@@H](CCCNC(=N)N)C(=O)N[C@H](C(=O)NCC(N)=O)CSCC(=O)N[C@@H](Cc2cccc3[nH]ccc23)C(=O)N(C)[C@@H](C)C(=O)N[C@@H](CC(N)=O)C(=O)N2CCC[C@H]2C(=O)N[C@@H](Cc2cnc[nH]2)C(=O)N[C@@H](CC(C)C)C(=O)N2CCC[C@H]2C(=O)N[C@@H](Cc2c[nH]c3ccccc23)C(=O)N[C@@H](CO)C(=O)N[C@@H](Cc2csc3ccccc23)C(=O)N1C [Example 1120] ({CH2CO}-[Ala(indol-4-yl)][NMeA]NPHLPWS[Bta][NMeNle][NMeNle]RCG-NH2; thioether N-14)
7.52 to 8.17 | – | 8.33 to 9.80 | CCCC[C@H]1C(=O)N(C)[C@@H](CCCC)C(=O)N[C@@H](CCCNC(=N)N)C(=O)N[C@H](C(=O)NCC(=O)O)CSCC(=O)N[C@@H](Cc2ccc(O)cc2)C(=O)N(C)[C@@H](C)C(=O)N[C@@H](CC(N)=O)C(=O)N2CCC[C@H]2C(=O)N[C@@H](Cc2cnc[nH]2)C(=O)N[C@@H](CC(C)C)C(=O)N2C[C@H](O)C[C@H]2C(=O)N[C@@H](Cc2c[nH]c3ccccc23)C(=O)N[C@@H](CO)C(=O)N[C@@H](Cc2c[nH]c3ccccc23)C(=O)N1C [Example 5068]
7.52 to 8.17 | 7.14 to 8.32 | – | C=CCCCC[C@H]1C(=O)N(C)[C@@H](CCCCC=C)C(=O)N[C@@H](CCCNC(=N)N)C(=O)N[C@H](C(=O)NCC(N)=O)CSCC(=O)N[C@@H](Cc2ccccc2)C(=O)N(C)[C@@H](C)C(=O)N[C@@H](CC(N)=O)C(=O)N2CCC[C@H]2C(=O)N[C@@H](Cc2cnc[nH]2)C(=O)N[C@@H](CC(C)C)C(=O)N(C)CC(=O)N[C@@H](Cc2c[nH]c3ccccc23)C(=O)N[C@@H](CO)C(=O)N[C@@H](Cc2c[nH]c3ccccc23)C(=O)N1C [Example 1043]
8.17 to 9.41 | – | 8.33 to 9.80 | CCCC[C@H]1C(=O)N(C)[C@@H](COCC)C(=O)N[C@@H](CCCNC(=N)N)C(=O)NC(C(=O)NCC(N)=O)CSCC(=O)N[C@@H](Cc2ccc(O)cc2)C(=O)N(C)[C@@H](C)C(=O)N[C@@H](CC(N)=O)C(=O)N2CCC[C@H]2C(=O)N[C@@H](Cc2cnc[nH]2)C(=O)N[C@@H](CC(C)C)C(=O)N2CCC[C@H]2C(=O)N[C@@H](Cc2c[nH]c3ccccc23)C(=O)N[C@@H](CO)C(=O)N[C@@H](Cc2c[nH]c3ccccc23)C(=O)N1C (stereo partly shown) [Example 9041] ({CH2CO}-Y[NMeA]NPHLPWSW[NMeNle][NMeS](Et)R[ξC]G-NH2; thioether N-14)
8.17 to 9.41 | – | 8.33 to 9.80 | CCCC[C@H]1C(=O)N(C)[C@@H](CCCC)C(=O)N[C@@H](CCCNC(=N)N)C(=O)N[C@H](C(=O)NCC(N)=O)CSCC(=O)N[C@@H](Cc2ccc(O)cc2)C(=O)N(C)[C@@H](C)C(=O)N[C@@H](CC(N)=O)C(=O)N2CCC[C@H]2C(=O)N[C@@H](Cc2cnc[nH]2)C(=O)N[C@@H](CCCCN)C(=O)N2C[C@H](O)C[C@H]2C(=O)N[C@@H](Cc2c[nH]c3ccccc23)C(=O)N[C@@H](CO)C(=O)N[C@@H](Cc2c[nH]c3ccccc23)C(=O)N1C [Example 5024] ({CH2CO}-Y[NMeA]NPHK[Hyp]WSW[NMeNle][NMeNle]RCG-NH2; thioether N-14)
< 7.52 | < 7.13 | – | CCCC[C@H]1C(=O)N(C)[C@@H](CCCC)C(=O)NC(CCCNC(=N)N)C(=O)NC(C(=O)NCC(N)=O)CSCC(=O)N[C@@H](Cc2ccccc2)C(=O)N(C)[C@@H](C)C(=O)N[C@@H](CC(N)=O)C(=O)N2CCCC2C(=O)N[C@@H](Cc2cnc[nH]2)C(=O)N[C@@H](CC(C)C)C(=O)N(C)CC(=O)N[C@@H](Cc2c[nH]c3ccccc23)C(=O)NC(CO)C(=O)N[C@@H](Cc2ccc(-c3ccccc3)cc2)C(=O)N1C (stereo partly shown) [Example 1028] ({CH2CO}-F[NMeA]N[ξP]HL[Sar]W[ξS][Bip][NMeNle][NMeNle][ξR][ξC]G-NH2; thioether N-14)
